In patent US20230018737A1, “AN IN VITRO KIT AND A METHOD FOR D[…] TRANSPLANTS AND/OR AUTOIMMUNE DISEASES AND/OR TUMOR DISEASES AND/OR VA[…] A MESSENGER-SUBSTANCE-CONTAINING SUPERNATANT, CELL-[…], AND A COMBINATION, FOR USE IN D[…] TRANSPLANTS AND/OR AUTOIMMUNE DISEASES AND/OR TUMOR DISEASES AND/OR VACCINATIONS” (HOT Screen GmbH, priority 2019, published 2023):
“And” between values parts separate entries of the source, which are not always exact repeats. Equal values may be shown once.

Key:
whole blood cultures = assay type: cell-based, human
T cells = assay type: cell-based, human

tetanus toxoid [TeTo]
IL-10 (whole blood cultures): 8.47 pg/mL and 8.24 pg/mL | IL-2 (T cells): 12.1 pg/mL | IL-2 Conc (T cells): 12.1 pg/mL | IL-2 SI (stimulation index) (T cells): 314
